According to patent US20210196747A1, “METABOLISM IMPROVING AGENT” (University of the Ryukyus, priority 2018, published 2021):

System: model rat of the present invention (13LK freely fed)
Assay: Alkalizing agent (citrate or sodium bicarbonate) given to the 13LK-fed model rat: urine pH and urinary corticosterone excretion (Example 3)
Type: in vivo
Conditions: 13LK model rat, 1 week, n = 8; for Urine pH: 13LK control 5.7 ± 0.2; for Urine corticosterone: 13LK control 486 ± 115
Description: Citrate or sodium bicarbonate was administered as an alkalizing agent using the model rat of the present invention prepared in Example 1 (13LK was freely fed as a feed for one week), and the results of confirming urine pH and urinary glucocorticoid (corticosterone) excretion are shown in Table 3. Urine pH increased and corticosterone excretion decreased in both the citrate administration group and the sodium bicarbonate administration group as compared to the control group.

In the case of O=C([O-])O.[Na+] [NaHCO3, sodium bicarbonate], the “Urine pH” value was 6.8 ± 0.6, the “Urine pH” value (listed as sodium bicarbonate) was “increased” and the Urine corticosterone was 309 ± 116 ng/day. The Urine corticosterone (listed as sodium bicarbonate) was “decreased”.
